Where two headings read alike, the source gives them in different places. Positions of bridges follow the written chain, without caps; N, C: chain ends. Residues, ends and D or L forms follow the SMILES beside them. *: point of attachment. PhAc = O=C(Cc1ccccc1)*
Legend:
human IR-A (holoIR-A) = molecular target: T1, human IR-A (holoIR-A) (Homo sapiens, UniProt P06213); assay: holoIR-A competitive radioligand binding assay (scintillation proximity assay); settings: for weaker affinity for hIR-A than BHI: relative to biosynthetic human insulin
T1 construct: expressed in transfected cells; host or cells: HEK293 (ATCC #CRL-1573), stably transfected; membrane preparation
Summary of the method: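 Membranes from HEK293 cells stably expressing C9-tagged human IR-A were used in a WGA-bead SPA competition assay in 50 mM Tris-HCl pH 7.5, 150 mM NaCl, 0.1% fatty-acid-free BSA. Ten-point 3-fold dilutions were incubated 10 h at room temperature before scintillation counting. Percent specific inhibition was calculated after nonspecific-binding correction, from three independent runs.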

[1] = molecular target: T2, human holoIR-A over-expressed in HEK293 cells (Homo sapiens, UniProt P06213); assay: holoIR-A auto-phosphorylation assay (ELISA); type: cell-based
T2 construct: expressed in transfected cells; host or cells: HEK293, stably transfected
Method: Phosphorylation was quantified using an ELISA technique. Ninety-six well, flat-bottom microplates (Greiner Bio-One) were pre-coated with 2 µg mL^−1 anti-C9 monoclonal antibody (Rho 1D4; University of British Columbia)[27] in 20 mM sodium carbonate, pH 9.6, at 4 °C for overnight prior to the assay. On the assay day, plates were washed 3× with 0.1% Tween in 50 mM Tris Buffer Saline, pH 7.5 (TBST), and then blocked for greater than 1 h at room temperature (RT) with 1% BSA (Sigma) in TBST.
Stably transfected HEK293 cells over-expressing human holoIR-A containing a C-terminal C9 epitope tag ([…]), were plated at 6 × 10^4 cells per well serum-starved using 0.1% BSA in DMEM (Gibco) for overnight at standard tissue culture condition. […] After a 15-min incubation in lysis buffer at 4 °C, the lysate was transferred to anti-C9 antibody coated capture plate (Rho 1D4; University of British Columbia)[27]. […] After a 1 h incubation at room temperature, the secondary antibody was removed by washing 3× with TBST. Signal detection occurred with the addition of TMB, an HRP substrate (Pierce). After 5–10 min, the reaction was stopped by adding an equal volume of 2 M H2SO4, and the absorbance readings at 450 nm (A450) were recorded using a Envision plate reader (PerkinElmer). Samples were tested in three independent assay runs on three different days.
Percent specific response (y-axis) was plotted versus the log concentration of compound (x-axis) using Prism Version 9.3.1 (GraphPad Software). Individual measurements are provided as Source Data.

[2] = test system: [holoIR-A]-expressing IM-9 human lymphoblast cells; assay: holoIR-A accelerated dissociation assay of pre-bound 125I-insulin; type: binding; settings: IM-9 cells, 1:40 dilution, 16 °C, 30 min; n = 3
Method: Ice-cold 15-25 pM ^125I-insulin solution was added to IM-9 cells and incubated at 4 °C for 2.5 h for pre-bound experiments. […] Following receptor and ^125I-insulin pre-bound, the mix was quickly centrifugated and supernatant was removed. The bound ^125I-insulin and IM-9 cells were then resuspended with 16 °C pre-equilibrated HBB, pH 7.6. The ^125I-ligand/IM-9 cell mixture was aliquoted to cold compounds at 1:40 ratio, respectively. The reactions were incubated at 16 °C for 30 min to allow dissociation of prebound ^125I-insulin and then harvested by centrifugation and aspiration of the supernatant. The radioactivity of cell pellets was determined by gamma counter (Perkin Elmer). Samples were tested in three independent assay runs on three different days. Individual measurements are provided as Source Data.

[3] = molecular target: T2, human holoIR-A over-expressed in HEK293 cells; assay: Inhibition of hIR phosphorylation by peptides, co-incubated with BHI at its EC50 (ELISA); type: cell-based; settings: for hIRA Phosph IC50 Run 1 / hIRA Phosph IC50 Run 2 / hIRA Phosph IC50 Run 3: inhibition of insulin-stimulated phosphorylation; for hIRA Phosph IC50 Run 1: BHI at its EC50, run 1; for hIRA Phosph IC50 Run 2: BHI at its EC50, run 2; for hIRA Phosph IC50 Run 3: BHI at its EC50, run 3; for IC50: read-out: hIRA Phosph IC50 Mean
Summary of the method: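 Phosphorylation ELISA (TMB, A450) after anti-C9 capture of lysates from stably transfected HEK293 cells expressing C-terminally C9-tagged human holoIR-A, serum-starved overnight in 0.1% BSA/DMEM. Percent specific response versus log concentration, from three independent runs on three days.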

[4] = primary peptide set, mean of 3 runs, read-out: IRA Binding Ki Mean
[5] = Fig. 1b, HEK293 hIR-A cells, 1 h 37 °C, ELISA, errors given as SEM, n = 3 independent replicates, read-out: Auto-phosphorylation constant EC50
[6] = primary peptide set, mean of 3 runs, read-out: hIRA Phosph EC50 Mean
[7] = IM172N22(-) mutant peptide set, mean of 3 runs, read-out: hIRA Binding Ki Mean
[8] = IM172N22(-) mutant peptide set, run 1, read-out: hIRA Binding Ki Run 1
[9] = IM172N22(-) mutant peptide set, run 2, read-out: hIRA Binding Ki Run 2
[10] = IM172N22(-) mutant peptide set, run 3, read-out: hIRA Binding Ki Run 3

T1 sequence (P06213 28-1370 isoform P06213-2 limits assumed): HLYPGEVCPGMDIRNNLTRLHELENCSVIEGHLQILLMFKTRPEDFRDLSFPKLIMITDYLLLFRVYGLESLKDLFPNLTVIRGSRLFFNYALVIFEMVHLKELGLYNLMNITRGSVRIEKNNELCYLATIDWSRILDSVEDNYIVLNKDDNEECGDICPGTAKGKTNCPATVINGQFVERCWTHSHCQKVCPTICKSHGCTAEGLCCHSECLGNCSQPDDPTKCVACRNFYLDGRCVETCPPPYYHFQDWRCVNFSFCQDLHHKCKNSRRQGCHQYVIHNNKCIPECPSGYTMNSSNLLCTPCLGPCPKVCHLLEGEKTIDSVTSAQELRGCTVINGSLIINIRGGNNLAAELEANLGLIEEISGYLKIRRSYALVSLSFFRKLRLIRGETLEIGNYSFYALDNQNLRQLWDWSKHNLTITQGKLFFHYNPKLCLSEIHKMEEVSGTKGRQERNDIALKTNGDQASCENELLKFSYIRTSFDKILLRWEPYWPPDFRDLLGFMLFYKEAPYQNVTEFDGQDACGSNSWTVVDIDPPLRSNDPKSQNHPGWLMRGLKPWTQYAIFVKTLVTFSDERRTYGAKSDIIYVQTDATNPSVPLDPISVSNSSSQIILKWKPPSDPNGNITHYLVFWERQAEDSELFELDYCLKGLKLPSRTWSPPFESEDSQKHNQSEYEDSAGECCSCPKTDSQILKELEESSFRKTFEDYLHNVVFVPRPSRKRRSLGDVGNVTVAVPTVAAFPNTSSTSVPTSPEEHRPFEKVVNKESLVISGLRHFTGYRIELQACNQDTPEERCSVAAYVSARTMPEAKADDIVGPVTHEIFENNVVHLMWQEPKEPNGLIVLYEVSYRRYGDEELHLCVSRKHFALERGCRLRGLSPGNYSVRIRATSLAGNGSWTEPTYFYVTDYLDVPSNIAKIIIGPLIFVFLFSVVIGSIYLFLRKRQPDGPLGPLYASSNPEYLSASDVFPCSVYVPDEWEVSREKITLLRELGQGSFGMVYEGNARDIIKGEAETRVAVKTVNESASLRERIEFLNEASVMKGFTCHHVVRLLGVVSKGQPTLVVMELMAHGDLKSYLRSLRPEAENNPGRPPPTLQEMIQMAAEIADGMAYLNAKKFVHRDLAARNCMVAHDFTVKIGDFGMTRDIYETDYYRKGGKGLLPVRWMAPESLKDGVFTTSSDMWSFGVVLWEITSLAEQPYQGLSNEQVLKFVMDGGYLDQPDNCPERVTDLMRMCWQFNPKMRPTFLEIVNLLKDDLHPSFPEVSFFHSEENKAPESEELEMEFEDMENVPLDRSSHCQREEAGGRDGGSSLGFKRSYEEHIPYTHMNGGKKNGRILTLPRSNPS
T1 sequence (P06213 763-1382 partner limits assumed): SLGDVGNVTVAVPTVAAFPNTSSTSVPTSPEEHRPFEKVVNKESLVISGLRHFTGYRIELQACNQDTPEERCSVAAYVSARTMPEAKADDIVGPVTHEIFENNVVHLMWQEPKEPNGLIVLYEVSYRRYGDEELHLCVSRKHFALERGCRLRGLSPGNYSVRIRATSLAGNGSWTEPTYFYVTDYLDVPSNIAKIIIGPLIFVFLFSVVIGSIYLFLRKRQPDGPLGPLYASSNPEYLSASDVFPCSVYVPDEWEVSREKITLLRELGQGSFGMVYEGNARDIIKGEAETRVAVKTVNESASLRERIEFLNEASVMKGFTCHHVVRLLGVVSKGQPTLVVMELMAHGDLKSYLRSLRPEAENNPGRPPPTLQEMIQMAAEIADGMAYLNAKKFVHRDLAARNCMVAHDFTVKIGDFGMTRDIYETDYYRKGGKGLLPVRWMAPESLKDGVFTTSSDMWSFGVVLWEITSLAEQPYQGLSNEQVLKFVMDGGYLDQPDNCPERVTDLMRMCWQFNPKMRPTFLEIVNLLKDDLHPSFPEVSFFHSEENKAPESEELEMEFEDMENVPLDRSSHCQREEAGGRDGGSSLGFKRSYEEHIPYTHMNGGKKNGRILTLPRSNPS
T2 sequence (P06213 28-1370 isoform P06213-2 limits assumed): as the sequence (P06213 28-1370 isoform P06213-2 limits assumed) above
T2 sequence (P06213 763-1382 partner limits assumed): as the sequence (P06213 763-1382 partner limits assumed) above

Row | Structure (SMILES) | Ki (human IR-A (holoIR-A); [4]) [nM] | EC50 [1, 5] [nM] | EC50 [1, 6] [nM] | hIRA Phosph EC50 Run 1 ([1]; primary peptide set) [nM] | hIRA Phosph EC50 Run 2 ([1]; primary peptide set) [nM] | hIRA Phosph EC50 Run 3 ([1]; primary peptide set) [nM] | hIRA Phosph IC50 Run 1 [3] [nM] | hIRA Phosph IC50 Run 2 [3] [nM] | hIRA Phosph IC50 Run 3 [3] [nM] | IC50 [3] [nM] | Ki (human IR-A (holoIR-A); [7]) [nM] | Ki (human IR-A (holoIR-A); [8]) [nM] | Ki (human IR-A (holoIR-A); [9]) [nM] | Ki (human IR-A (holoIR-A); [10]) [nM] | binding of the mutant peptide to hIR-A (in words) (human IR-A (holoIR-A); alanine substitution in IM172N22(-)) | weaker affinity for hIR-A than BHI (human IR-A (holoIR-A)) [fold] | activity in hIR autophosphorylation assay (in words) [1] | effect on dissociation of pre-bound I125-insulin tracer from native membrane-expressed hIR (in words) [2]
1 | COc1ccc(C[C@H](NC(=O)[C@H](CO)NC(=O)[C@H](CCC(=O)O)NC(=O)[C@H](CO)NC(=O)[C@@H]2CCCN2C(C)=O)C(=O)N[C@@H](Cc2ccc(O)cc2)C(=O)N[C@@H](CCCCN)C(=O)N[C@@H](Cc2c[nH]c3ccccc23)C(=O)N[C@@H](Cc2ccccc2)C(=O)N[C@@H](CCC(=O)O)C(=O)N[C@@H](CCCNC(=N)N)C(=O)N[C@@H](CCC(N)=O)C(=O)N[C@@H](CC(C)C)C(N)=O)cc1 [IM172C13] (Ac-PSESY(Me)YKWFERQL-NH2) | 310 | > 10000 | > 10000 | >10000 | >10000 | >10000 | – | – | – | – | – | – | – | – | – | ~1000 | devoid of detectable activity | –
2 | COc1ccc(C[C@H](NC(=O)[C@H](C)NC(=O)[C@H](CCCCN)NC(=O)[C@H](CCCCN)NC(=O)[C@@H]2CCCN2C(C)=O)C(=O)N[C@@H](Cc2ccc(O)cc2)C(=O)N[C@@H](CCCCN)C(=O)N[C@@H](Cc2c[nH]c3ccccc23)C(=O)N[C@@H](Cc2ccccc2)C(=O)N[C@@H](CCC(=O)O)C(=O)N[C@@H](CCCNC(=N)N)C(=O)N[C@@H](CCC(N)=O)C(=O)N[C@@H](CC(C)C)C(=O)N[C@@H](CCCCN)C(N)=O)cc1 [IM459C14] (Ac-PKKAY(Me)YKWFERQLK-NH2) | 215 | > 1000 | > 1000 | >1000 | >1000 | >1000 | – | – | – | – | – | – | – | – | – | – | – | no effect
3 | CC[C@H](C)[C@H](NC(=O)[C@H](CCC(N)=O)NC(=O)[C@H](C)NC(=O)[C@H](Cc1c[nH]c2ccccc12)NC(=O)[C@H](CCC(=O)O)NC(=O)[C@H](CCC(=O)O)NC(=O)[C@H](CCC(=O)O)NC(=O)[C@H](CC(C)C)NC(=O)[C@H](CO)NC(=O)Cc1ccccc1)C(=O)N[C@@H](CCC(=O)O)C(=O)N[C@H]1CSSC[C@@H](C(=O)N2CCC[C@H]2C(=O)N2CCC[C@H]2C(=O)N[C@@H](CO)C(=O)N[C@@H](CCC(=O)O)C(=O)N[C@@H](CO)C(N)=O)NC(=O)[C@H](CCCNC(=N)N)NC(=O)CNC(=O)[C@H](Cc2ccc(O)cc2)NC(=O)[C@H](C(C)C)NC(=O)[C@H](CCC(=O)O)NC1=O [IM172N22] (PhAc-SLEEEWAQIECEVYGRCPPSES-NH2; disulfide 11-17) | 3.08 | > 1000 | > 1000 | >1000 | >1000 | >1000 | 17 | 17 | 17 | 16.9 | – | – | – | – | – | ~10 | devoid of detectable activity | –
4 | CC[C@H](C)[C@H](NC(=O)[C@H](CCC(N)=O)NC(=O)[C@H](C)NC(=O)[C@H](Cc1c[nH]c2ccccc12)NC(=O)[C@H](CCC(=O)O)NC(=O)[C@H](CCC(=O)O)NC(=O)[C@H](CCC(=O)O)NC(=O)[C@H](C)NC(=O)[C@H](CO)NC(C)=O)C(=O)N[C@@H](CCC(=O)O)C(=O)N[C@H]1CSSC[C@@H](C(=O)N2CCC[C@H]2C(=O)N2CCC[C@H]2C(=O)N[C@@H](CO)C(=O)N[C@@H](CCC(=O)O)C(=O)N[C@@H](CO)C(N)=O)NC(=O)[C@H](CCCNC(=N)N)NC(=O)CNC(=O)[C@H](Cc2ccc(O)cc2)NC(=O)[C@H](C(C)C)NC(=O)[C@H](CCC(=O)O)NC1=O [Peptide L2A] (Ac-SAEEEWAQIECEVYGRCPPSES-NH2; disulfide 11-17) | – | – | – | – | – | – | 7523 | 7642 | 7687 | 7620 | > 5000 | >5000 | >5000 | >5000 | no detectable binding | – | – | –

More lines, main results first:

Row | Ki (human IR-A (holoIR-A); [4]) [nM] | EC50 [1, 5] [nM] | EC50 [1, 6] [nM] | hIRA Phosph EC50 Run 1 ([1]; primary peptide set) [nM] | hIRA Phosph EC50 Run 2 ([1]; primary peptide set) [nM] | hIRA Phosph EC50 Run 3 ([1]; primary peptide set) [nM] | hIRA Phosph IC50 Run 1 [3] [nM] | hIRA Phosph IC50 Run 2 [3] [nM] | hIRA Phosph IC50 Run 3 [3] [nM] | IC50 [3] [nM] | Ki (human IR-A (holoIR-A); [7]) [nM] | Ki (human IR-A (holoIR-A); [8]) [nM] | Ki (human IR-A (holoIR-A); [9]) [nM] | Ki (human IR-A (holoIR-A); [10]) [nM] | binding of the mutant peptide to hIR-A (in words) (human IR-A (holoIR-A); alanine substitution in IM172N22(-)) | Structure (SMILES) | weaker affinity for hIR-A than BHI (human IR-A (holoIR-A)) [fold] | activity in hIR autophosphorylation assay (in words) [1] | effect on dissociation of pre-bound I125-insulin tracer from native membrane-expressed hIR (in words) [2]
5 | 3.18 | – | 6.04 | – | – | – | – | – | – | – | – | – | – | – | – | CC(C)C[C@H](NC(=O)[C@H](CCC(N)=O)NC(=O)[C@H](CCCNC(=N)N)NC(=O)[C@H](CCC(=O)O)NC(=O)[C@H](Cc1ccccc1)NC(=O)[C@H](Cc1c[nH]c2ccccc12)NC(=O)[C@H](CC(=O)O)NC(=O)[C@H](Cc1ccc(O)cc1)NC(=O)[C@H](Cc1ccccc1)NC(=O)[C@H](CO)NC(=O)[C@H](CCC(=O)O)NC(=O)[C@H](CC(=O)O)NC(=O)[C@H](CC(C)C)NC(=O)[C@H](CO)NC(=O)CNC(=O)[C@H](CO)NC(=O)[C@@H]1CCCN1C(=O)[C@@H]1CSSC[C@H](NC(=O)[C@H](CCC(=O)O)NC(=O)[C@@H](NC(=O)[C@H](CCC(N)=O)NC(=O)[C@H](C)NC(=O)[C@H](Cc2c[nH]c3ccccc23)NC(=O)[C@H](CCC(=O)O)NC(=O)[C@H](CCC(=O)O)NC(=O)[C@H](CCC(=O)O)NC(=O)[C@H](CC(C)C)NC(=O)[C@@H](N)CO)C(C)C)C(=O)N[C@@H](CCC(=O)O)C(=O)N[C@@H](C(C)C)C(=O)N[C@@H](Cc2ccc(O)cc2)C(=O)NCC(=O)N[C@@H](CCCNC(=N)N)C(=O)NCC(=O)N1)C(=O)NCC(=O)O [Peptide S519, reference compound] (H-SLEEEWAQVECEVYGRGCPSGSLDESFYDWFERQLG-OH; disulfide 11-18) | – | – | –
6 | – | – | – | – | – | – | 2321 | 2401 | 2832 | 2520 | 215 | 203 | 265 | 177 | – | CC[C@H](C)[C@H](NC(=O)[C@H](CCC(N)=O)NC(=O)[C@H](C)NC(=O)[C@H](Cc1c[nH]c2ccccc12)NC(=O)[C@H](CCC(=O)O)NC(=O)[C@H](CCC(=O)O)NC(=O)[C@H](CCC(=O)O)NC(=O)[C@H](CC(C)C)NC(=O)[C@H](CO)NC(C)=O)C(=O)N[C@@H](CCC(=O)O)C(=O)N[C@H]1CSSC[C@@H](C(=O)N2CCC[C@H]2C(=O)N2CCC[C@H]2C(=O)N[C@@H](CO)C(=O)N[C@@H](CCC(=O)O)C(=O)N[C@@H](CO)C(N)=O)NC(=O)[C@H](CCCNC(=N)N)NC(=O)CNC(=O)[C@H](Cc2ccc(O)cc2)NC(=O)[C@H](C)NC(=O)[C@H](CCC(=O)O)NC1=O [Peptide V13A] (Ac-SLEEEWAQIECEAYGRCPPSES-NH2; disulfide 11-17) | – | – | –

— paper PMC9519552, “Activation of the human insulin receptor by non-insulin-related peptides” (Nature Communications, 2022)
